The compounds below were run on HT-1080 (ATCC, CCL-121) cells (assay: HT-1080 cell viability assay with ferroptosis inducer RSL3 (Cell Titer-Glo)). Details: Homo sapiens; HT-1080 cells treated with RSL3; 3-fold, 10-point dilution, 1.1 μM highest concentration; Table 2; read-out: EC50 (nM), ferroptosis inhibitory activity.
Assay type: cell-based
Method in brief: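 EC50 was derived by sigmoidal dose-response regression of CellTiter-Glo luminescence viability, expressed relative to untreated wells. Compounds were tested in a ten-point, threefold dilution series (highest 1.1 μM) in the presence of the ferroptosis inducer RSL3. HT-1080 cells had been seeded at 6000 per well and grown overnight first.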
For `Cc1cc(N2CC(C)OC(C)C2)ccc1Nc1ccc2c(c1)ncn2C` (stereo not shown) [Compound 447, N-(4-(2,6-dimethylmorpholino)-2-methylphenyl)-1-methyl-1H-benzo[d]imidazol-5-amine], the EC50 was 0.1 to 100 nM. For `Cn1c(=O)n(C)c2cc(Nc3ccc4c(c3)OCCO4)ccc21` [Compound 307, 5-((2,3-dihydrobenzo[b][1,4]dioxin-6-yl)amino)-1,3-dimethyl-1,3-dihydro-2H-benzo[d]imidazol-2-one], the EC50 was 100 to 1000 nM. `Cn1cnc2cc(Nc3ccc(N4CCC(C(F)(F)F)CC4)cc3)ccc21` [Compound 336, 1-methyl-N-(4-(4-(trifluoromethyl)piperidin-1-yl)phenyl)-1H-benzo[d]imidazol-5-amine] gave an EC50 of 0.1 to 100 nM. Work on `Cn1c(=O)n(C)c2cc(Nc3ccc(C4CCCCC4)cc3)ccc21` [Compound 394, 5-((4-cyclohexylphenyl)amino)-1,3-dimethyl-1,3-dihydro-2H-benzo[d]imidazol-2-one] yielded an EC50 of 0.1 to 100 nM. For `COc1cc(Nc2ccc3c(c2)OCC(=O)N3)cnc1N1CCC(C(F)(F)F)CC1` [Compound 131, 7-((5-methoxy-6-(4-(trifluoromethyl)piperidin-1-yl)pyridin-3-yl)amino)-2H-benzo[b][1,4]oxazin-3(4H)-one], the EC50 was 0.1 to 100 nM. `CN1C(=O)COc2cc(Nc3ccc(N4CCC(CF)CC4)cc3)ccc21` [Compound 23, 7-((4-(4-(fluoromethyl)piperidin-1-yl)phenyl)amino)-4-methyl-2H-benz o[b][1,4]oxazin-3(4H)-one] showed an EC50 of 0.1 to 100 nM. In the case of `CN1C(=O)COc2cc(Nc3ccc4cc(N5CCC(C(F)(F)F)CC5)ccc4c3)ccc21` [Compound 72, 4-methyl-7-((6-(4-(trifluoromethyl)piperidin-1-yl)naphthalen-2-yl)amino)-2H-benzo[b][1,4]oxazin-3(4H)-one], the EC50 is reported as 0.1 to 100 nM. In the case of `Cn1c(=O)c2ccc(Nc3ccc(N4CCC(C(F)(F)F)CC4)cc3)cc2n1C(=O)OC(C)(C)C` [Compound 188, tert-butyl 2-methyl-3-oxo-6-((4-(4-(trifluoromethyl)piperidin-1-yl)phenyl)amino)-2,3-dihydro-1H-indazole-1-carboxylate], the EC50 is reported as 100 to 1000 nM. Compound `O=c1ccc2cc(Nc3ccc(N4CCC(C(F)(F)F)CC4)cc3)ccc2o1` [Compound 123, 6-((4-(4-(trifluoromethyl)piperidin-1-yl)phenyl)amino)-2H-chromen-2-one] has an EC50 of 0.1 to 100 nM. `CC1CCN(c2ccc(Nc3ccc4c(c3)oc(=O)n4C)cc2)CC1` [Compound 273, 3-methyl-6-((4-(4-methylpiperidin-1-yl)phenyl)amino) benzo[d]oxazol-2(3H)-one] gave an EC50 of 0.1 to 100 nM. Work on `CN1Cc2cc(Nc3ccc(N4CCCCC4)c(Cl)c3)ccc2C1=O` [Compound 225, 5-((3-chloro-4-(piperidin-1-yl)phenyl)amino)-2-methylisoindolin-1-one] yielded an EC50 of 0.1 to 100 nM. In the case of `Cc1cc(N2CC(C)OC(C)C2)ccc1Nc1ccc2c(c1)c(C(N)=O)cn2C` (stereo not shown) [Compound 444, 5-((4-(2,6-dimethylmorpholino)-2-methylphenyl)amino)-1-methyl-1H-indole-3-carboxamide], the EC50 is reported as 0.1 to 100 nM. For `COC1(C(F)(F)F)CCN(c2ccc(Nc3ccc4c(c3)n(C)c(=O)n4C)cc2)CC1` [Compound 384, 5-((4-(4-methoxy-4-(trifluoromethyl)piperidin-1-yl)phenyl)amino)-1,3-dimethyl-1,3-dihydro-2H-benzo[d]imidazol-2-one], the EC50 was 0.1 to 100 nM. `Cn1cnc2cc(Nc3ccc4c(c3)n(C)c(=O)n4C)ccc21` [Compound 331, 1,3-dimethyl-5-((1-methyl-1H-benzo[d]imidazol-5-yl)amino)-1,3-dihydro-2H-benzo[d]imidazol-2-one] showed an EC50 of 100 to 1000 nM. For `Cn1c(=O)oc2cc(Nc3ccc(N4CCC(CF)CC4)cc3)ccc21` [Compound 387, 6-((4-(4-(fluoromethyl)piperidin-1-yl)phenyl)amino)-3-methylbenzo[d]oxazol-2(3H)-one], the EC50 was 0.1 to 100 nM. `CN1C(=O)COc2cc(Nc3ccc(N4CCC(C(F)(F)F)CC4)cc3)c(F)cc21` [Compound 156, 6-fluoro-4-methyl-7-((4-(4-(trifluoromethyl)piperidin-1-yl)phenyl)amino)-2H-benzo[b][1,4]oxazin-3(4H)-one] was tested, and the EC50 was 0.1 to 100 nM. `Cn1ccc2ccc(Nc3ccc(N4CCC(C(F)(F)F)CC4)cc3)cc21` [Compound 348, 1-methyl-N-(4-(4-(trifluoromethyl)piperidin-1-yl)phenyl)-1H-indol-6-amine] was tested, and the EC50 was 0.1 to 100 nM. `CN1CCOc2cc(Nc3ccc(N4CCC(C(F)(F)F)CC4)cc3)ccc2C1=O` [Compound 346, 4-methyl-8-((4-(4-(trifluoromethyl)piperidin-1-yl)phenyl)amino)-3,4-dihydrobenzo[f][1,4]oxazepin-5(2H)-one] showed an EC50 of 100 to 1000 nM. In the case of `CN1C(=O)COc2cc(Nc3ccc(N4CC5CCC(C4)O5)c(F)c3)ccc21` [Compound 89, 7-((4-(8-oxa-3-azabicyclo[3.2.1]octan-3-yl)-3-fluorophenyl)amino)-4-methyl-2H-benzo[b][1,4]oxazin-3(4H)-one], the EC50 is reported as 0.1 to 100 nM. `Cn1c(=O)n(C)c2cc(Nc3ccc(C(C)(C)C)cc3)ccc21` [Compound 261, 5-((4-(tert-butyl)phenyl)amino)-1,3-dimethyl-1,3-dihydro-2H-benzo[d]imidazol-2-one] gave an EC50 of 0.1 to 100 nM. For `COc1cc(Nc2ccc3c(c2)n(C)c(=O)n3C)ccc1N1CCC(C(F)(F)F)CC1` [Compound 269, 5-((3-methoxy-4-(4-(trifluoromethyl)piperidin-1-yl)phenyl)amino)-1,3-dimethyl-1,3-dihydro-2H-benzo[d]imidazol-2-one], the EC50 was 0.1 to 100 nM. With `Cn1c(NCC2CC2)cc2ccc(Nc3ccc(N4CCC(C(F)(F)F)CC4)cc3)cc21` [Compound 396, N2-(cyclopropylmethyl)-1-methyl-N6-(4-(4-(trifluoromethyl)piperidin-1-yl)phenyl)-1H-indole-2,6-diamine] the EC50 was 0.1 to 100 nM.

Same assay, conditions: Homo sapiens; HT-1080 cells treated with RSL3; 3-fold, 10-point dilution, 1.1 μM highest concentration; Table 3; read-out: EC50 (nM), ferroptosis inhibitory activity
For `Cc1cc(N2CCC(C(F)F)CC2)ccc1Nc1ccc2c(c1)OCC(=O)N2` [Compound 654, 7-[4-[4-(difluoromethyl)-1-piperidyl]-2-methyl-anilino]-4H-1,4-benzoxazin-3-one], the EC50 was 0.1 to 100 nM. `Cc1nc(N2CCC(C(F)(F)F)CC2)ccc1Nc1ccc2c(c1)OCC(=O)N2` [Compound 489, 7-((2-methyl-6-(4-(trifluoromethyl)piperidin-1-yl)pyridin-3-yl)amino)-2H-benzo[b][1,4]oxazin-3(4H)-one] gave an EC50 of 0.1 to 100 nM. `CCC1Oc2cc(Nc3ccc(N4CCC(C(F)(F)F)CC4)cc3C)ccc2NC1=O` (stereo not shown) [Compound 483, 2-ethyl-7-((2-methyl-4-(4-(trifluoromethyl)piperidin-1-yl)phenyl)amino)-2H-benzo[b][1,4]oxazin-3(4H)-one] showed an EC50 of 0.1 to 100 nM. Work on `Cc1cc(N2CCC(C(F)(F)F)CC2)ccc1Nc1ccc2c(c1)OC(C)C(=O)N2` (stereo not shown) [Compound 482, 2-methyl-7-((2-methyl-4-(4-(trifluoromethyl)piperidin-1-yl)phenyl)amino)-2H-benzo[b][1,4]oxazin-3(4H)-one] yielded an EC50 of 0.1 to 100 nM. `Cc1cc(N2CCC(C(F)(F)F)CC2)ccc1Nc1cc(C)c2c(c1)OCC(=O)N2` [Compound 473, 5-methyl-7-((2-methyl-4-(4-(trifluoromethyl)piperidin-1-yl)phenyl)amino)-2H-benzo[b][1,4]oxazin-3(4H)-one] was tested, and the EC50 was 0.1 to 100 nM. For `CCN(CC)c1ccc(Nc2ccc3c(c2)OCC(=O)N3)c(C)c1` [Compound 501, 7-((4-(diethylamino)-2-methylphenyl)amino)-2H-benzo[b][1,4]oxazin-3(4H)-one], the EC50 was 0.1 to 100 nM.

Source: patent US20240327393A1 (SIRONAX LTD., priority 2021, published 2024)
